Source: US9073924B2, “Azaindazoles” (GlaxoSmithKline LLC, priority 2011, dated 2015)

Molecular target: T1, EZH2 within the PRC2 complex (Homo sapiens, UniProt Q15910)
T1 construct: FLAG; made in house; host or cells: Sf9 cells
Test: EZH2 methyltransferase scintillation proximity assay (SPA), PRC2 complex
Format: biochemical
Conditions: inhibition of methyltransferase activity, 3H-SAM, HeLa mononucleosome substrate, foregoing or an analogous assay
Protocol: Compounds contained herein were evaluated for their ability to inhibit the methyltransferase activity of EZH2 within the PRC2 complex. Human PRC2 complex was prepared by co-expressing each of the 5 member proteins (FLAG-EZH2, EED, SUZ12, RbAp48, AEBP2) in Sf9 cells followed by co-purification. Enzyme activity was measured in a scintillation proximity assay (SPA) where a tritiated methyl group is transferred from 3H-SAM to a lysine residue on Histone H3 of a mononucleosome, purified from HeLa cells. Mononucleosomes were captured on SPA beads and the resulting signal is read on a ViewLux plate reader.
Part A. Compound Preparation
Prepare 10 mM stock of compounds from solid in 100% DMSO. • 2. Set up an 11-point serial dilution (1:3 dilution, top concentration 10 mM) in 100% DMSO for each test compound in a 384 well plate leaving columns 6 and 18 for DMSO controls. • 3. Dispense 100 nL of compound from the dilution plate into reaction plates (Grenier Bio-One, 384-well, Cat#784075). Part B. Reagent Preparation Prepare the following solutions: • 1. […] Read plates • 1. Read the assay plates on the Viewlux Plate Reader utilizing the 613 nm emission filter with a 300 s read time. […]
Percent inhibition was calculated relative to the DMSO control for each compound concentration and the resulting values were fit using standard IC50 fitting parameters within the ABASE data fitting software package.

T1 sequence (Q15910 whole entry): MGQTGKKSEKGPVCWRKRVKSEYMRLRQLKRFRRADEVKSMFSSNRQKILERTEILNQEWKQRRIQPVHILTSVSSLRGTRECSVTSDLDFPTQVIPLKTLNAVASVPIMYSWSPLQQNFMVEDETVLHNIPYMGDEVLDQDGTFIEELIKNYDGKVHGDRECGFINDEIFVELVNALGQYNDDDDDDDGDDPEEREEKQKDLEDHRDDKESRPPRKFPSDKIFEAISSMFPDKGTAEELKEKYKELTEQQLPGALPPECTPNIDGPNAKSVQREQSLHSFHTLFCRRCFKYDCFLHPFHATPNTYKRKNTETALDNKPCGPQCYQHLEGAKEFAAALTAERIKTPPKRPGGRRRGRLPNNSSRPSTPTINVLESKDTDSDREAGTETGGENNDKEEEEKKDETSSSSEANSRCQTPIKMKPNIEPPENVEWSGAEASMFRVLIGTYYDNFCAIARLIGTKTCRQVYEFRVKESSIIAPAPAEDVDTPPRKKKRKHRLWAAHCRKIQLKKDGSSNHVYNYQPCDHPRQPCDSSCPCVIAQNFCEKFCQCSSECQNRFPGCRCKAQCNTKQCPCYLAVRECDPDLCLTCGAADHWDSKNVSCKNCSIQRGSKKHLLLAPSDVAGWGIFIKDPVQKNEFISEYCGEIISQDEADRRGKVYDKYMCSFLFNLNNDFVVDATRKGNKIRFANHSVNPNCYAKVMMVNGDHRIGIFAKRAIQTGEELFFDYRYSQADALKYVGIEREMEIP
T1 sequence (O75530 whole entry partner): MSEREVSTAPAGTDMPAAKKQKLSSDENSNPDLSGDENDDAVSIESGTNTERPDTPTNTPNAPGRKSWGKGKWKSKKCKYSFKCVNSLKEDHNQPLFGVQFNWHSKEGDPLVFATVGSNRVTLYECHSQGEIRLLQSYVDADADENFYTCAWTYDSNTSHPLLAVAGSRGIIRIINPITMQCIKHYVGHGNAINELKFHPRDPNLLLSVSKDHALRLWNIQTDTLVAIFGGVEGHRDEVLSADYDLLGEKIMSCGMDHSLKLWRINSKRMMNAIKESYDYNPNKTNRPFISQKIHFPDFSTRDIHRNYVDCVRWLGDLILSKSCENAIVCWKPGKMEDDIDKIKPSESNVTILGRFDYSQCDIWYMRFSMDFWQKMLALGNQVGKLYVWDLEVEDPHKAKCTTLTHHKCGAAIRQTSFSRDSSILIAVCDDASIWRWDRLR
T1 sequence (Q15022 whole entry partner): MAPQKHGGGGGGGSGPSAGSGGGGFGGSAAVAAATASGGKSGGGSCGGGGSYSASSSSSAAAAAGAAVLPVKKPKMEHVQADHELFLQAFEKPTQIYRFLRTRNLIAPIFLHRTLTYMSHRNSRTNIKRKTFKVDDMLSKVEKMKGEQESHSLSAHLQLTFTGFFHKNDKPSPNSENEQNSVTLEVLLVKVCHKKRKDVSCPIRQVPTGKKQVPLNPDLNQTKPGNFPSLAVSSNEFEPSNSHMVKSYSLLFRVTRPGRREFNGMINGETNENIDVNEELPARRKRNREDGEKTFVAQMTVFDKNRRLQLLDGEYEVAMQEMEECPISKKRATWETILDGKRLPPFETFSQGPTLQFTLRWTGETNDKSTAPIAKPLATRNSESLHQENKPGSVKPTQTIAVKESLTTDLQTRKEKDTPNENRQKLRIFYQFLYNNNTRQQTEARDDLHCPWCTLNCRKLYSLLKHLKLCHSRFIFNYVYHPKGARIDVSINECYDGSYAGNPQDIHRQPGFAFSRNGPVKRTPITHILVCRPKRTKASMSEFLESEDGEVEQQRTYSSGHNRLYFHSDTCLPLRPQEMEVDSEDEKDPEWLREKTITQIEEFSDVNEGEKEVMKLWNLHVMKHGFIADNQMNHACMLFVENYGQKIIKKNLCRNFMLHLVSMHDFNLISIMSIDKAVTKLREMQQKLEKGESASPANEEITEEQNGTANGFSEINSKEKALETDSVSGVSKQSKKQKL
T1 sequence (Q09028 whole entry partner): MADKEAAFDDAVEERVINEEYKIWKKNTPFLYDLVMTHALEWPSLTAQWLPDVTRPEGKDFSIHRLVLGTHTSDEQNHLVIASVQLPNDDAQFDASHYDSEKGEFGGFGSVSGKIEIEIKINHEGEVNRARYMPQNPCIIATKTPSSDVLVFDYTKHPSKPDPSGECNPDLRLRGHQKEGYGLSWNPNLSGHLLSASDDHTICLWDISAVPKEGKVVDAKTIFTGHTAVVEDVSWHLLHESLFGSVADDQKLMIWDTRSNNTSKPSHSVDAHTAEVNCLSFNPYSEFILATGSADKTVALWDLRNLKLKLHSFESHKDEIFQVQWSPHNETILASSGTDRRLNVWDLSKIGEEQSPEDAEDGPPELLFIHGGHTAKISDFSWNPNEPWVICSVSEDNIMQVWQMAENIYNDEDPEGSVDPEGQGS
T1 sequence (Q6ZN18 whole entry partner): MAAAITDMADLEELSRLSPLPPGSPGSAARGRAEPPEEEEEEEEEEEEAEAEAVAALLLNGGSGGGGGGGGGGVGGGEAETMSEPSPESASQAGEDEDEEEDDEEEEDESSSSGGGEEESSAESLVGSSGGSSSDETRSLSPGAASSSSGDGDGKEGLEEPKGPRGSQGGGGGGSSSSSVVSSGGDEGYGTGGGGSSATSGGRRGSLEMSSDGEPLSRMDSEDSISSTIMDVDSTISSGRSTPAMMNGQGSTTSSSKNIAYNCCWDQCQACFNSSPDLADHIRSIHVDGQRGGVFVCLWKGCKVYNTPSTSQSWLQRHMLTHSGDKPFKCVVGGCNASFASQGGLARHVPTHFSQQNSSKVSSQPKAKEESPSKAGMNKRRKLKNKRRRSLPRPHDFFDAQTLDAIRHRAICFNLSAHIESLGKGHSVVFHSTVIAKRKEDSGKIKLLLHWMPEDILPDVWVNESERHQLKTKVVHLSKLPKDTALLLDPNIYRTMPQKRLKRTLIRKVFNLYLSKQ

Row | Substance | IC50 [nM]
1 | N-[(4,6-Dimethyl-2-oxo-1,2-dihydro-3-pyridinyl)methyl]-1-(1-methylethyl)-6-(2-phenylethyl)-1H-pyrazolo[3,4-b]pyridine-4-carboxamide [Ex 32] | 856
2 | 6-{[4-(Aminocarbonyl)phenyl]amino}-N-[(4,6-dimethyl-2-oxo-1,2-dihydro-3-pyridinyl)methyl]-1-(1-methylethyl)-1H-pyrazolo[3,4-b]pyridine-4-carboxamide [Ex 86] | 142
